In patent publication US20240285770A1, “PRECIPITATION SUPPRESSING AGENT” (Nippon Shinyaku Co., Ltd., priority 2021, published 2024):
Read-outs that look alike come from different tables or passages of the source. Each block holds one molecule with its values, some of them ahead of it.

Columns and labels:
[1] = Plasma concentrations and estimation of urinary PMO No. 12 concentration after administration to cynomolgus monkeys; type: in vivo; settings: male cynomolgus monkeys; for Plasma concentration 0 hr (a) / Plasma concentration 0.25 hr (b) / Plasma concentration 0.5 hr (c) / Plasma concentration 1 hr (d) / Plasma concentration 2 hr (e) / Plasma concentration 6 hr (f) / Plasma concentration 24 hr (g): average of 3 animals; for Estimated urinary concentration at 0.25 hr (l): amount of urine up to 0.25 hr assumed 3.91 mL; for Average plasma concentration from 0 hr to 0.25 hr (j): average of values a and b; for Amount excreted up to 0.25 hr (k): calculated by using CLtot
Procedure: (§1) For setting the test conditions such as the concentrations of sugar and antisense oligomers assumed to be in urine, D-mannitol, which is […] and corresponds to a reduced form of D-mannose, and antisense oligomers were administered to cynomolgus monkeys, and the urinary concentration shortly after administration were estimated from the changes in plasma concentrations and the total body clearance.
From the values, the area under the plasma concentration-time curve (AUC0-24 hr) up to 24 hours after administration and the total body clearance (CLtot) were calculated (the values h and i in Table 3). Further, the plasma concentrations at 0 hours and 0.25 hours after administration (the values a and b in Table 3) were averaged to obtain the average plasma concentration from 0 hours to 0.25 hours (the value j in Table 3), and the amount of antisense oligomer excreted per body weight up to 0.25 hours (the value k in Table 3) was calculated by using CLtot (the value i in Table 3). The amount of urine up to 0.25 hours after administration was assumed to be 3.91 mL, based on the fact that the daily amount of urine of cynomolgus monkeys (body weight: 5 kg) was 375 mL, and the urinary antisense oligomer concentration at 0.25 hours after administration was then estimated (the value 1 in Table 3).

[2] = Plasma concentrations and estimation of urinary D-mannitol concentration after administration to cynomolgus monkeys; type: in vivo; settings: 500 mg/kg; for concentration at 4 h / concentration at 1 h / concentration at 8 h / AUC(0-t) / clearance: cynomolgus monkey, plasma; for concentration at 4 h / concentration at 1 h / concentration at 8 h / Plasma concentration 0 hr (a) / Plasma concentration 0.25 hr (b) / Plasma concentration 24 hr (f): average of 3 animals; for concentration at 1 h: read-out: Plasma concentration 1 hr (c); for concentration at 8 h: read-out: Plasma concentration 8 hr (e); for AUC(0-t): read-out: AUC0-24 hr (g); for clearance: read-out: CLtot (h) (converted); for Estimated urinary concentration at 0.25 hr (k): amount of urine up to 0.25 hr assumed 3.91 mL; for Average plasma concentration from 0 hr to 0.25 hr (i): average of values a and b; for Amount excreted up to 0.25 hr (j): calculated by using CLtot
Procedure: as §1
20% D-mannitol was diluted to 50 mg/mL with physiological saline, the diluted solution thus obtained was administered at 10 mL/kg to 3 male and 3 female cynomolgus monkeys aged 1 to 2 year-old, and the plasma concentrations were then measured at 0 hours (immediately after administration), 0.25 hours, 1 hour, 4 hours, 8 hours, and 24 hours after administration (each of the values a, b, c, d, e, and f in Table 2 was an average value of 3 animals). From the values, the area under the plasma concentration-time curve (AUC0-24 hr) up to 24 hours after administration and the total body clearance (CLtot) were calculated (the values g and h in Table 2). Further, the plasma concentrations at 0 hours and 0.25 hours after administration (the values a and b in Table 2) were averaged to obtain the average plasma concentration from 0 hours to 0.25 hours (the value i in Table 2), and the amount of D-mannitol excreted per body weight up to 0.25 hours (the value j in Table 2) was calculated by using CLtot (the value h in Table 2). The amount of urine up to 0.25 hours after administration was assumed to be 3.91 mL, based on the fact that the daily amount of urine of cynomolgus monkeys (body weight: 5 kg) was 375 mL (B Clark, D A Smith Pharmacokinetics and toxicity testing. Crit Rev Toxicol. 1984; 12 (4): 343-85.), and the urinary mannitol concentration at 0.25 hours after administration was then estimated (the value k in Table 2).
The estimated urinary concentration obtained as above was averaged, and the urinary concentration shortly after administration in a case of administering 500 mg/kg of D-mannitol was estimated to be 127.5 mg/mL. Since D-mannitol is rarely distributed in the body and rapidly excreted in urine without undergoing metabolism, it can be assumed that there is a linear relationship between the amount administered and the urinary concentration. Accordingly, by using the following formulas, the urinary concentration was converted into the amount of D-mannitol administered, and the amount administered was then converted into concentrations in the formulations at the time of administration (at the time of use) according to the body weight and the amount of dosing solution.

Molecule: PMO No. 12: phosphorodiamidate morpholino antisense oligomer, sequence CCTCCGGTTCTGAAGGTGTTC, 5′-end Group(2) (all phosphorodiamidate morpholino (PMO); further chemistry not fully specified)
AUC0-24 hr (h) ([1]; 10 mg/kg): 50.25 µg·h/mL
CLtot (i) ([1]; 10 mg/kg): 3.317 mL/min/kg
Plasma concentration 0 hr (a) ([1]; 10 mg/kg): 137.6 µg/mL
Plasma concentration 0.25 hr (b) ([1]; 10 mg/kg): 30.95 µg/mL
Plasma concentration 0.5 hr (c) ([1]; 10 mg/kg): 19.06 µg/mL
Plasma concentration 1 hr (d) ([1]; 10 mg/kg): 9.79 µg/mL
Plasma concentration 2 hr (e) ([1]; 10 mg/kg): 4.328 µg/mL
Plasma concentration 6 hr (f) ([1]; 10 mg/kg): Below detection limit
Plasma concentration 24 hr (g) ([1]; 10 mg/kg): Below detection limit
Estimated urinary concentration at 0.25 hr (l) ([1]; 10 mg/kg): 5.362 mg/mL
Average plasma concentration from 0 hr to 0.25 hr (j) ([1]; 10 mg/kg): 84.28 µg/mL
Amount excreted up to 0.25 hr (k) ([1]; 10 mg/kg): 4193 µg/kg
AUC0-24 hr (h) ([1]; 60 mg/kg): 269.3 µg·h/mL
CLtot (i) ([1]; 60 mg/kg): 3.713 mL/min/kg
Plasma concentration 0 hr (a) ([1]; 60 mg/kg): 805.9 µg/mL
Plasma concentration 0.25 hr (b) ([1]; 60 mg/kg): 154.7 µg/mL
Plasma concentration 0.5 hr (c) ([1]; 60 mg/kg): 100.9 µg/mL
Plasma concentration 1 hr (d) ([1]; 60 mg/kg): 45.93 µg/mL
Plasma concentration 2 hr (e) ([1]; 60 mg/kg): 18.46 µg/mL
Plasma concentration 6 hr (f) ([1]; 60 mg/kg): 1.045 µg/mL
Plasma concentration 24 hr (g) ([1]; 60 mg/kg): Below detection limit
Estimated urinary concentration at 0.25 hr (l) ([1]; 60 mg/kg): 34.21 mg/mL
Average plasma concentration from 0 hr to 0.25 hr (j) ([1]; 60 mg/kg): 480.3 µg/mL
Amount excreted up to 0.25 hr (k) ([1]; 60 mg/kg): 26753 µg/kg

concentration at 4 h ([2]; female cynomolgus monkeys): 90.3 µg/mL
concentration at 1 h ([2]; female cynomolgus monkeys): 720 µg/mL
concentration at 8 h ([2]; female cynomolgus monkeys): 4.87 µg/mL
AUC(0-t) ([2]; female cynomolgus monkeys): 2830 µg·h/mL
clearance ([2]; female cynomolgus monkeys): 2.95 mL/min/kg
concentration at 4 h ([2]; male cynomolgus monkeys): 89.2 µg/mL
concentration at 1 h ([2]; male cynomolgus monkeys): 651 µg/mL
concentration at 8 h ([2]; male cynomolgus monkeys): 4.67 µg/mL
AUC(0-t) ([2]; male cynomolgus monkeys): 2680 µg·h/mL
clearance ([2]; male cynomolgus monkeys): 3.12 mL/min/kg
urinary concentration shortly after administration (estimated, averaged) ([2]; cynomolgus monkeys, average of male and female estimates): 127.5 mg/mL
Plasma concentration 0 hr (a) ([2]; female cynomolgus monkeys): 2950 µg/mL
Plasma concentration 0.25 hr (b) ([2]; female cynomolgus monkeys): 1490 µg/mL
Plasma concentration 24 hr (f) ([2]; female cynomolgus monkeys): Below detection limit
Estimated urinary concentration at 0.25 hr (k) ([2]; female cynomolgus monkeys): 126 mg/mL
Average plasma concentration from 0 hr to 0.25 hr (i) ([2]; female cynomolgus monkeys): 2220 µg/mL
Amount excreted up to 0.25 hr (j) ([2]; female cynomolgus monkeys): 98235 µg/kg
Plasma concentration 0 hr (a) ([2]; male cynomolgus monkeys): 2810 µg/mL
Plasma concentration 0.25 hr (b) ([2]; male cynomolgus monkeys): 1510 µg/mL
Plasma concentration 24 hr (f) ([2]; male cynomolgus monkeys): Below detection limit
Estimated urinary concentration at 0.25 hr (k) ([2]; male cynomolgus monkeys): 129 mg/mL
Average plasma concentration from 0 hr to 0.25 hr (i) ([2]; male cynomolgus monkeys): 2160 µg/mL
Amount excreted up to 0.25 hr (j) ([2]; male cynomolgus monkeys): 100980 µg/kg
Molecule: OC[C@@H](O)[C@@H](O)[C@H](O)[C@H](O)CO [D-Mannitol, D-mannitol]
